Results published in patent publication US8632813B2, “Prostaglandin compositions and methods for the treatment of vasospasm” (Nexmed (Holdings), Inc., priority 2003, dated 2014).

Experiments:
[1] = test system: vasospasm induced by adrenaline hydrochloride, femoral artery; assay: Ultrasonography of blood flow volume in surgically exposed femoral artery with adrenaline-induced vasospasm (Example 4); assay type: in vivo, New Zealand Rabbits; settings: four drops of papaverine (30 mg/ml) on exposed femoral artery; for The Average Time Required To Return To The Initial Blood Flow Volume: 120 minute test
Procedure: Rabbits were obtained and anesthetized as described in Example 2, above. A total of 70 rabbits were randomly assigned into 7 groups with 10 rabbits per group. Blood flow velocity and vascular cross section area were measured and analyzed using a Toshiba Multifunction Ultrasonography 6000 system. A portion of femoral artery about 2 cm long was exposed through a 3 cm incision. […] The entire test was performed under a constant room temperature of 20 degrees Celsius. About ten minutes after the application of adrenaline hydrochloride, the operating field was irrigated with sterile saline topically and dried with sterile pad. […] The incision was closed after the application of the topical composition. The ultrasonic probe was put at a fixed location 1 cm from the incision. […] In general, blood flow volume=blood flow velocity×vascular cross section The data were expressed as average±SD; t-test was used for statistical analysis. The averaged data are reported in Table 9, below, as instantaneous blood flow volume±standard deviation (SD), N=10, and shown graphically in FIG. 6.

[2] = test system: vasospasm, central artery and vein of the ear; assay: Pilot study of 0.4% PGE1 topical composition on adrenaline-induced ear vasospasm (Example 5, FIG. 1-2); assay type: in vivo, New Zealand rabbit; settings: 1 mg of PGE1 dissolved in 75% aqueous ethanol on skin of right ear
From the text: The objects of these pilot studies were designed to explore the efficacy of a specially formulated 0.4 wt % PGE1 topical composition for treating vasospasm and skin disorders that result from insufficient local blood circulation. Twenty four adult New Zealand rabbit, 3-4 kg, were divided into three groups: 12 rabbits were assigned into a Test Study Group; 6 rabbits were assigned into a PGE1 Control Group and 6 rabbits were assigned into an Alcohol Control Group. One rabbit of each Group was selected to enter the study at the same time for each of the first six studies.
The rabbit's right ear was selected to be the test application site, while its left ear was observed as a control. An adrenaline solution (0.2 ml of a 0.1% (1:1000) solution) was injected into the area adjacent to both the central artery and vein near the bottom of both ears. Classic vasospasm appeared five minutes later on both ears. One of three test substances, 125 mg of a 0.4% PGE1 topical composition containing 1.8% DDAIP HCl was applied to a 2 cm×2 cm area of skin adjacent to the central artery and vein of the right ear.
Vasospasm was induced in the same way in both ears of the rabbits of the PGE1 Control Group and the Alcohol Control Group. Similarly, 1 mg of PGE1 dissolved in 75% aqueous ethanol, or the 75% aqueous ethanol vehicle alone were applied to the right ears of the rabbits of the PGE1 Control Group and the Alcohol Control Group respectively. The time course of changes in blood vessel diameter was observed.

For `COc1ccc(Cc2nccc3cc(OC)c(OC)cc23)cc1OC` [Papaverine, papaverine], the “The accumulated blood flow volume from 10 minutes after vasospasm to 120 minutes after drug administration” value [1] was 2341 ± 94.87 cm^3, the “instantaneous blood flow volume” value ([1]; 5 min after Drug) was 319 ± 13.27 mm^3/s and the “instantaneous blood flow volume” value ([1]; 5 min after Vasospasm (before drug)) was 107 ± 4.11 mm^3/s. The “instantaneous blood flow volume” value ([1]; 10 min after Drug) was 358 ± 13.95 mm^3/s, the “instantaneous blood flow volume” value ([1]; 10 min after Vasospasm (before drug)) was 86 ± 4.76 mm^3/s and the “instantaneous blood flow volume” value ([1]; 15 min after Drug) was 402 ± 18.44 mm^3/s. The “instantaneous blood flow volume” value ([1]; 30 min after Drug) was 435 ± 17.76 mm^3/s, the “instantaneous blood flow volume” value ([1]; 60 min after Drug) was 296 ± 12.58 mm^3/s and the “instantaneous blood flow volume” value ([1]; 90 min after Drug) was 287 ± 11.96 mm^3/s. For the same compound, the “instantaneous blood flow volume” value ([1]; 120 min after Drug) was 274 ± 10.88 mm^3/s, the “The Average Time Required To Return To The Initial Blood Flow Volume” value [1] was 5 min and the “The Average Time Required To Return To The Initial Blood Flow Volume” value ([1]; listed as papaverine) was “produced recovery of blood flow volume”. For the same compound, the “instantaneous blood flow volume” value ([1]; Normal Condition (before drug)) was 325 ± 9.80 mm^3/s and the “The accumulated blood flow volume from 10 minutes after vasospasm to 120 minutes after drug administration” value ([1]; listed as papaverine) was “a slightly greater effect that was comparable to that produced by composition comprising 80 μg PGE1”.
With `CCCCC[C@H](O)/C=C/[C@H]1[C@H](O)CC(=O)[C@@H]1CCCCCCC(=O)O` [PGE1 dissolved in 75% aqueous ethanol, Prostaglandin E1] the “changes of the vascular bed of the right ear” value [2] was “No significant remaining changes were observed”, the “duration of the dilation effect” value [2] was 60 min and the “time after application at which the vasospasm was alleviated slightly” value [2] was 20 min. The “time until vessels of the right ear were dilated” value [2] was 30 min.
